{"source": "paper PMC5218480", "about": "(PLoS ONE, 2017)", "system": "MV-4-11 cells", "assay": "Gene expression microarray analysis (Affymetrix PrimeView) and GSEA", "type": "cell-based, human", "parameters": "RFU PODN (11730768_x_at) / Fold change /veh PODN (11730768_x_at) / RFU LINC00158 (11744669_a_at) / Fold change /veh LINC00158 (11744669_a_at) / RFU DUSP10 (11751237_a_at) / Fold change /veh DUSP10 (11751237_a_at) / RFU ID3 (11757404_x_at) / Fold change /veh ID3 (11757404_x_at) / RFU PLEKHG5 (11737974_s_at) / Fold change /veh PLEKHG5 (11737974_s_at) / RFU LRRC4B (11730491_at) / Fold change /veh LRRC4B (11730491_at) / RFU GIMAP4 (11747438_a_at) / Fold change /veh GIMAP4 (11747438_a_at) / RFU KRT8 (11758183_x_at) / Fold change /veh KRT8 (11758183_x_at) / RFU CNN1 (11734310_a_at) / Fold change /veh CNN1 (11734310_a_at) / RFU VPS37D (11726825_at) / Fold change /veh VPS37D (11726825_at) / RFU C10orf10 (11716522_x_at) / Fold change /veh C10orf10 (11716522_x_at) / RFU KIR2DL2 /// KIR2DL4 /// KIR2DL5A /// KIR2DL5B /// KIR2DS1 /// KIR2DS2 /// KIR2DS3 /// KIR2DS4 /// KIR3DL3 /// KIR3DL3 /// KIR3DS1 (11738374_at) / Fold change /veh KIR2DL2 /// KIR2DL4 /// KIR2DL5A /// KIR2DL5B /// KIR2DS1 /// KIR2DS2 /// KIR2DS3 /// KIR2DS4 /// KIR3DL3 /// KIR3DL3 /// KIR3DS1 (11738374_at) / RFU C1QL1 (11718748_at) / Fold change /veh C1QL1 (11718748_at) / RFU TMPRSS4 (11747572_a_at) / Fold change /veh TMPRSS4 (11747572_a_at) / RFU HAMP (11756126_x_at) / Fold change /veh HAMP (11756126_x_at) / RFU RNFT2 (11725882_a_at) / Fold change /veh RNFT2 (11725882_a_at) / RFU NR4A2 (11747474_a_at) / Fold change /veh NR4A2 (11747474_a_at) / RFU ABCC12 (11746883_a_at) / Fold change /veh ABCC12 (11746883_a_at) / RFU TMEM136 (11760407_x_at) / Fold change /veh TMEM136 (11760407_x_at) / RFU CLDN22 /// WWC2 (11732394_at) / Fold change /veh CLDN22 /// WWC2 (11732394_at) / RFU HLA-DPB1 (11760878_x_at) / Fold change /veh HLA-DPB1 (11760878_x_at) / RFU SPINT1 (11716480_a_at) / Fold change /veh SPINT1 (11716480_a_at) / RFU GAP43 (11754022_s_at) / Fold change /veh GAP43 (11754022_s_at) / RFU A4GNT (11735810_at) / Fold change /veh A4GNT (11735810_at) / RFU PRB3 (11715151_x_at) / Fold change /veh PRB3 (11715151_x_at) / RFU TUBB4B (11761932_at) / Fold change /veh TUBB4B (11761932_at) / RFU CAPN14 (11732068_a_at) / Fold change /veh CAPN14 (11732068_a_at) / RFU TMCC2 (11721928_a_at) / Fold change /veh TMCC2 (11721928_a_at) / RFU IRGQ (11745062_a_at) / Fold change /veh IRGQ (11745062_a_at) / RFU FAM174B (11720279_a_at) / Fold change /veh FAM174B (11720279_a_at) / RFU TMPRSS4 (11748680_a_at) / Fold change /veh TMPRSS4 (11748680_a_at) / RFU FAM212B (11763350_a_at) / Fold change /veh FAM212B (11763350_a_at) / RFU PLEKHG5 (11743358_a_at) / Fold change /veh PLEKHG5 (11743358_a_at) / RFU ZSCAN30 (11745921_a_at) / Fold change /veh ZSCAN30 (11745921_a_at) / RFU CMKLR1 (11741424_a_at) / Fold change /veh CMKLR1 (11741424_a_at) / RFU LOC101060620 /// MAPK8IP1 (11723275_at) / Fold change /veh LOC101060620 /// MAPK8IP1 (11723275_at) / RFU SPTSSB (11747773_x_at) / Fold change /veh SPTSSB (11747773_x_at) / RFU PRSS12 (11739890_at) / Fold change /veh PRSS12 (11739890_at) / RFU BIN1 (11741810_x_at) / Fold change /veh BIN1 (11741810_x_at) / RFU WNT11 (11732464_a_at) / Fold change /veh WNT11 (11732464_a_at) / RFU C10orf10 (11716521_a_at) / Fold change /veh C10orf10 (11716521_a_at) / RFU C5orf56 (11738089_at) / Fold change /veh C5orf56 (11738089_at) / RFU CYB561 (11721691_x_at) / Fold change /veh CYB561 (11721691_x_at) / RFU ANKRD19P (11752326_a_at) / Fold change /veh ANKRD19P (11752326_a_at) / RFU OR2T12 /// OR2T33 /// OR2T8 (11738714_s_at) / Fold change /veh OR2T12 /// OR2T33 /// OR2T8 (11738714_s_at) / RFU VCAN (11748164_a_at) / Fold change /veh VCAN (11748164_a_at) / RFU JSRP1 (11732532_at) / Fold change /veh JSRP1 (11732532_at) / RFU KRTAP10-11 (11738290_x_at) / Fold change /veh KRTAP10-11 (11738290_x_at) / RFU MYO3A (11730013_a_at) / Fold change /veh MYO3A (11730013_a_at) / RFU EBF3 (11725865_a_at) / Fold change /veh EBF3 (11725865_a_at) / RFU CAMK2N1 (11719241_x_at) / Fold change /veh CAMK2N1 (11719241_x_at) / RFU C5orf56 (11738088_a_at) / Fold change /veh C5orf56 (11738088_a_at) / RFU OLFML3 (11715873_a_at) / Fold change /veh OLFML3 (11715873_a_at) / RFU LOC100653217 /// NTM (11731650_a_at) / Fold change /veh LOC100653217 /// NTM (11731650_a_at) / RFU MAPK11 (11762145_a_at) / Fold change /veh MAPK11 (11762145_a_at) / RFU FIZ1 (11724087_x_at) / Fold change /veh FIZ1 (11724087_x_at) / RFU OASL (11726364_x_at) / Fold change /veh OASL (11726364_x_at) / RFU SOX15 (11748057_x_at) / Fold change /veh SOX15 (11748057_x_at) / RFU CD79A (11719716_a_at) / Fold change /veh CD79A (11719716_a_at) / RFU HIST1H1D (11736915_at) / Fold change /veh HIST1H1D (11736915_at) / RFU CASKIN2 (11723855_a_at) / Fold change /veh CASKIN2 (11723855_a_at) / RFU LOC730098 (11760151_x_at) / Fold change /veh LOC730098 (11760151_x_at) / RFU OR4N2 (11742367_at) / Fold change /veh OR4N2 (11742367_at) / RFU PRRT2 (11749266_a_at) / Fold change /veh PRRT2 (11749266_a_at) / RFU SNX32 (11753110_a_at) / Fold change /veh SNX32 (11753110_a_at) / RFU CDHR5 (11726645_a_at) / Fold change /veh CDHR5 (11726645_a_at) / RFU RCAN1 (11760418_a_at) / Fold change /veh RCAN1 (11760418_a_at) / RFU FAM167A (11723789_a_at) / Fold change /veh FAM167A (11723789_a_at) / RFU FAM26E (11764081_at) / Fold change /veh FAM26E (11764081_at) / RFU ISYNA1 (11749810_s_at) / Fold change /veh ISYNA1 (11749810_s_at) / RFU ACY1 (11761880_at) / Fold change /veh ACY1 (11761880_at) / RFU 11764098_at / Fold change /veh 11764098_at / RFU SAMD14 (11745864_x_at) / Fold change /veh SAMD14 (11745864_x_at) / RFU NPB (11741838_a_at) / Fold change /veh NPB (11741838_a_at) / RFU TMPRSS6 (11731388_a_at) / Fold change /veh TMPRSS6 (11731388_a_at) / RFU KRTAP10-2 (11738614_at) / Fold change /veh KRTAP10-2 (11738614_at) / RFU ARHGAP8 /// PRR5-ARHGAP8 (11727945_x_at) / Fold change /veh ARHGAP8 /// PRR5-ARHGAP8 (11727945_x_at) / RFU KRTAP5-7 /// NADSYN1 (11734609_at) / Fold change /veh KRTAP5-7 /// NADSYN1 (11734609_at) / RFU RASL12 (11751679_a_at) / Fold change /veh RASL12 (11751679_a_at) / RFU CDKN2B (11736163_a_at) / Fold change /veh CDKN2B (11736163_a_at) / RFU PRF1 (11729649_at) / Fold change /veh PRF1 (11729649_at) / RFU, ZNF638 /// ZNF638-IT1 / Fold change vs veh, ZNF638 /// ZNF638-IT1 / RFU, PANK3 / Fold change vs veh, PANK3 / RFU, SH3YL1 / Fold change vs veh, SH3YL1 / RFU, ZEB2 / Fold change vs veh, ZEB2 / RFU, NRIP1 / Fold change vs veh, NRIP1 / RFU, PTTG1IP / Fold change vs veh, PTTG1IP / RFU, CAPN2 / Fold change vs veh, CAPN2 / RFU, MED14 / Fold change vs veh, MED14 / RFU, SNORA58 / Fold change vs veh, SNORA58 / RFU, C1orf63 / Fold change vs veh, C1orf63 / RFU, LRRFIP1 / Fold change vs veh, LRRFIP1 / RFU, NDUFAF7 / Fold change vs veh, NDUFAF7 / RFU, SLC12A2 / Fold change vs veh, SLC12A2 / RFU, IBTK / Fold change vs veh, IBTK / RFU, ESF1 / Fold change vs veh, ESF1 / Fold change vs veh, TMEM50B / RFU, TAOK1 / Fold change vs veh, TAOK1 / RFU, ACBD3 / Fold change vs veh, ACBD3 / RFU, TMA16 / Fold change vs veh, TMA16 / RFU, RWDD3 / Fold change vs veh, RWDD3 / RFU, BCAT1 / Fold change vs veh, BCAT1 / RFU, EDEM3 / Fold change vs veh, EDEM3 / RFU, TMEM33 / Fold change vs veh, TMEM33 / RFU, WDR75 / Fold change vs veh, WDR75 / RFU, AHCTF1 / Fold change vs veh, AHCTF1 / RFU, TFRC / Fold change vs veh, TFRC / RFU, ZDHHC17 / Fold change vs veh, ZDHHC17 / RFU, NOM1 / Fold change vs veh, NOM1 / RFU, ARL8B / Fold change vs veh, ARL8B / RFU, ZBTB11 / Fold change vs veh, ZBTB11 / RFU, TAMM41 / Fold change vs veh, TAMM41 / RFU, KIAA1704 /// LOC100996395 / Fold change vs veh, KIAA1704 /// LOC100996395 / RFU, ING1 / Fold change vs veh, ING1 / RFU, TRMT61B / Fold change vs veh, TRMT61B / RFU, FUBP3 / Fold change vs veh, FUBP3 / RFU, TP53 / Fold change vs veh, TP53 / RFU, TNKS2 / Fold change vs veh, TNKS2 / RFU, ZFP14 / Fold change vs veh, ZFP14 / RFU, ACTR2 / Fold change vs veh, ACTR2 / RFU, PPP3R1 / Fold change vs veh, PPP3R1 / RFU, PIK3R1 / Fold change vs veh, PIK3R1 / RFU, HNRNPA1 / Fold change vs veh, HNRNPA1 / RFU, RNF170 / Fold change vs veh, RNF170 / RFU, ZNF28 / Fold change vs veh, ZNF28 / RFU, RNGTT / Fold change vs veh, RNGTT / RFU, OGT / Fold change vs veh, OGT / RFU, BRD1 / Fold change vs veh, BRD1 / RFU, MARS / Fold change vs veh, MARS / RFU, ZNF655 / Fold change vs veh, ZNF655 / RFU, FAHD1 / Fold change vs veh, FAHD1 / RFU, BDP1 / Fold change vs veh, BDP1 / RFU, LRRCC1 / Fold change vs veh, LRRCC1 / RFU, ARID1A / Fold change vs veh, ARID1A / RFU, ZNF146 / Fold change vs veh, ZNF146 / RFU, ZNF330 / Fold change vs veh, ZNF330 / RFU, GPN3 / Fold change vs veh, GPN3 / RFU, C9orf123 / Fold change vs veh, C9orf123 / RFU, N4BP2L2 / Fold change vs veh, N4BP2L2 / RFU, ARFIP1 / Fold change vs veh, ARFIP1 / RFU, FAM179B / Fold change vs veh, FAM179B / RFU, BCL10 / Fold change vs veh, BCL10 / RFU, UHRF1BP1L / Fold change vs veh, UHRF1BP1L / RFU, BET1 / Fold change vs veh, BET1 / RFU, CNOT2 / Fold change vs veh, CNOT2 / RFU, ZNF268 / Fold change vs veh, ZNF268 / Fold change vs veh, ZNF507 / RFU, DGCR2 / Fold change vs veh, DGCR2 / RFU, WDSUB1 / Fold change vs veh, WDSUB1 / Fold change vs veh, HSP90B1 /// MIR3652 / RFU, ADSS / Fold change vs veh, ADSS / RFU, GK / Fold change vs veh, GK / RFU, ZNF148 / Fold change vs veh, ZNF148 / RFU, TAF9 / Fold change vs veh, TAF9 / RFU, SLC1A5 / Fold change vs veh, SLC1A5 / RFU, SLMO2 / Fold change vs veh, SLMO2 / RFU, ABCC4 / Fold change vs veh, ABCC4 / RFU, LOC101060439 /// RAP1B / Fold change vs veh, LOC101060439 /// RAP1B / RFU, RFX7 / Fold change vs veh, RFX7 / RFU, GTPBP10 / Fold change vs veh, GTPBP10 / RFU, CNEP1R1 / Fold change vs veh, CNEP1R1 / RFU, BIVM-ERCC5 /// ERCC5 / Fold change vs veh, BIVM-ERCC5 /// ERCC5 / RFU, ILF3 / Fold change vs veh, ILF3 / RFU 11762660_at / Fold change /veh 11762660_at / RFU VCAN (11757783_s_at) / Fold change /veh VCAN (11757783_s_at) / RFU DDX43 (11728927_at) / Fold change /veh DDX43 (11728927_at) / RFU KRT8 (11758188_x_at) / Fold change /veh KRT8 (11758188_x_at) / RFU NKD1 (11759106_at) / Fold change /veh NKD1 (11759106_at) / RFU SRD5A1 (11742802_a_at) / Fold change /veh SRD5A1 (11742802_a_at) / RFU TPSAB1 /// TPSB2 (11721975_s_at) / Fold change /veh TPSAB1 /// TPSB2 (11721975_s_at) / RFU GSTM3 (11746129_a_at) / Fold change /veh GSTM3 (11746129_a_at) / RFU IL23R (11737362_x_at) / Fold change /veh IL23R (11737362_x_at) / RFU TMEM51 (11727254_a_at) / Fold change /veh TMEM51 (11727254_a_at) / RFU PIWIL2 (11732686_x_at) / Fold change /veh PIWIL2 (11732686_x_at) / RFU ORM1 (11744905_x_at) / Fold change /veh ORM1 (11744905_x_at) / RFU CCDC152 (11743942_at) / Fold change /veh CCDC152 (11743942_at) / RFU ECM1 (11717891_a_at) / Fold change /veh ECM1 (11717891_a_at) / RFU IL23R (11748794_a_at) / Fold change /veh IL23R (11748794_a_at) / RFU TNFAIP8L3 (11732012_x_at) / Fold change /veh TNFAIP8L3 (11732012_x_at) / RFU MBOAT4 (11741988_at) / Fold change /veh MBOAT4 (11741988_at) / RFU 11764193_at / Fold change /veh 11764193_at / RFU TMEM53 (11763286_at) / Fold change /veh TMEM53 (11763286_at) / RFU MAGEB2 (11727129_at) / Fold change /veh MAGEB2 (11727129_at) / RFU TMEM200A (11744735_a_at) / Fold change /veh TMEM200A (11744735_a_at) / RFU CCDC152 (11751479_a_at) / Fold change /veh CCDC152 (11751479_a_at) / RFU FAM211A (11726209_a_at) / Fold change /veh FAM211A (11726209_a_at) / RFU RGS16 (11746705_a_at) / Fold change /veh RGS16 (11746705_a_at) / RFU VCAN (11755009_s_at) / Fold change /veh VCAN (11755009_s_at) / RFU RHOB (11743442_s_at) / Fold change /veh RHOB (11743442_s_at) / RFU RGS16 (11720943_a_at) / Fold change /veh RGS16 (11720943_a_at) / RFU RGS16 (11720944_at) / Fold change /veh RGS16 (11720944_at) / RFU, VPS4B / Fold change vs veh, VPS4B / RFU, CREB1 / Fold change vs veh, CREB1 / RFU, DNAJC13 / Fold change vs veh, DNAJC13 / RFU, GNAQ / Fold change vs veh, GNAQ / RFU, CDK5R1 / Fold change vs veh, CDK5R1 / RFU, ZRANB3 / Fold change vs veh, ZRANB3 / RFU, CUL4A / Fold change vs veh, CUL4A / RFU, CCNY / Fold change vs veh, CCNY / RFU, UFL1 / Fold change vs veh, UFL1 / RFU, COG3 / Fold change vs veh, COG3 / RFU, DIAPH2 / Fold change vs veh, DIAPH2 / RFU, SKA2 / Fold change vs veh, SKA2 / RFU, AFF3 / Fold change vs veh, AFF3 / RFU, LMF1 / Fold change vs veh, LMF1 / RFU, IPO11 / Fold change vs veh, IPO11 / RFU, DFFB / Fold change vs veh, DFFB / RFU, FOXP1 / Fold change vs veh, FOXP1 / RFU, CARD8 / Fold change vs veh, CARD8 / RFU, STRN3 / Fold change vs veh, STRN3 / RFU, ADK / Fold change vs veh, ADK / RFU, RASSF2 / Fold change vs veh, RASSF2 / RFU, WIPF1 / Fold change vs veh, WIPF1 / RFU, LARP1B / Fold change vs veh, LARP1B / RFU, RASA1 / Fold change vs veh, RASA1 / RFU, RB1 / Fold change vs veh, RB1 / RFU, PPFIA1 / Fold change vs veh, PPFIA1 / RFU, MAT2A / Fold change vs veh, MAT2A / RFU, CCT5 / Fold change vs veh, CCT5 / RFU, WDR92 / Fold change vs veh, WDR92 / RFU, CUX1 / Fold change vs veh, CUX1 / RFU, TTC7A / Fold change vs veh, TTC7A / RFU, TMEM135 / Fold change vs veh, TMEM135 / RFU, DEPTOR / Fold change vs veh, DEPTOR / RFU, CPM / Fold change vs veh, CPM / RFU, DNAJB6 / Fold change vs veh, DNAJB6 / RFU, CACNA2D3 / Fold change vs veh, CACNA2D3 / RFU, DTX4 / Fold change vs veh, DTX4 / RFU, TFCP2 / Fold change vs veh, TFCP2 / RFU, GMCL1 /// GMCL1P1 / Fold change vs veh, GMCL1 /// GMCL1P1 / RFU, AEBP2 / Fold change vs veh, AEBP2 / RFU, SNHG1 /// SNORD22 /// SNORD25 /// SNORD26 /// SNORD27 /// SNORD28 /// SNORD29 /// SNORD31 / Fold change vs veh, SNHG1 /// SNORD22 /// SNORD25 /// SNORD26 /// SNORD27 /// SNORD28 /// SNORD29 /// SNORD31 / Fold change (Aza/veh), C12orf56 (ProbeSet 11735607_a_at) / Fold change (ACY-1035/veh), C12orf56 (ProbeSet 11735607_a_at) / Fold change (Aza/veh), FGFR1OP (ProbeSet 11751329_s_at) / Fold change (ACY-1035/veh), FGFR1OP (ProbeSet 11751329_s_at) / Fold change (Aza/veh), VPS36 (ProbeSet 11739960_a_at) / Fold change (ACY-1035/veh), VPS36 (ProbeSet 11739960_a_at) / RFU SYPL1 (11715823_x_at) / Fold change /veh SYPL1 (11715823_x_at) / RFU IGFBP7 (11715501_s_at) / Fold change /veh IGFBP7 (11715501_s_at) / RFU REEP3 (11722064_at) / Fold change /veh REEP3 (11722064_at) / RFU IGLL1 (11728026_x_at) / Fold change /veh IGLL1 (11728026_x_at): dose or concentration left out as unconfirmed", "conditions": "ProbeSet 11753616_s_at; LIST B", "data": [{"smiles": "Nc1ccc(-c2cccs2)cc1NC(=O)c1ccc2c(c1)cc(C1CC1)n2CCN1CCOCC1", "note": "[ACY-1035]", "values": [{"measurement": "RFU, ARL8B", "value": 236.78, "unit": "RFU"}]}]}
